The values below come from patent US12600696B2 (XENIOPRO GMBH, priority 2017, dated 2026).

This test concerns HL-60 cells (human acute myeloid leukemia cells). As to the kind of experiment: alamarBlue proliferation assay with HL-60 cells. It counts as cell-based. Conditions: 120 h, 5 days, relative to DMSO baseline level of 1.0, read-out: AVEw, weighted arithmetic mean of normalized fluorescence intensity values (Activity Range), HL-60 proliferation. The procedure: The antiproliferative activities of compounds falling under formula I, formula II, formula III, formula IV and formula V were investigated on cells or cell lines originating from a disorder of the myeloid cell compartment, the neuroendocrine system, the cervix, and the mucosal epithelium, as well as from the skin epithelium. To this end, HL-60 cells, TT cells, HeLa cells, CAL-27 cells and human primary epidermal keratinocytes (HPEK) were seeded into 96-well plates suitable for fluorescence assays (CORNING #3598) at following initial cell numbers: 1000 cells per well for HL-60; 9000 cells per well for TT; 2000 cells per well for HeLa, 2000 cells per well for CAL-27, 2000 cells per well for HPEK. The cells were treated with compounds at indicated final concentrations (diluted from the 1000× stock-solutions in DMSO to a final DMSO concentration of 0.1% v/v) or with the empty carrier DMSO at 0.1% v/v as control for 5 days. At day 5 after starting the treatments the cells were subjected to the alamarBlue® Proliferation Assay (Bio-Rad Serotec GmbH, BUF012B) according to the protocol of the manufacturer. The readout was taken with a multi-well plate-reader in the fluorescence mode with applying a filter for excitation at 560 nm (band width 10 nm) and for emission at 590 nm (band width 10 nm). Resveratrol (RES) treatment was included as control for growth inhibition.
The assays were performed in duplicate or more replicates of independent single experiments each containing a six-fold replicate for every condition. For every individual plate, the measured fluorescence intensity values of the conditions with compound treatment were normalized against the corresponding equally weighted arithmetic mean of the fluorescence intensity values of the six DMSO treated control wells in order to obtain the relative values to a baseline level of 1.0. The statistical calculations were performed in analogy to the luciferase assay as described above. To this end, two independent outlier analyses were performed according to the methods by Peirce and Chauvenet (Ross, Journal of Engineering Technology 2003, 1-12). Outliers confirmed by at least one of the methods were excluded from the calculations but not more than one value out of six per compound within a single experiment. The weighted arithmetic mean AVEw for each compound was calculated from the normalized values over all independent replicates of the single experiments comprising the six replicates each. The corresponding standard deviation for the weighted arithmetic mean was calculated according to the method described by Bronstein et al. (Bronstein, Semendjajew, Musiol, Mühlig, Taschenbuch der Mathematik, 5th edition 2001 (German), publisher: Verlag Harri Deutsch, Frankfurt am Main and Thun) and was combined with the Gauß′ error propagation associated with the performed calculation for the normalization. The resulting standard deviation is herein referred to as “combined standard deviation”.
HL-60 cells were cultivated according to the protocol of the provider in RPMI 1640 medium (Fisherscientific, #11554526) containing 10% fetal bovine serum (Fisherscientific, #15517589).
A compound is considered as a growth inhibitor of HL-60 cells, if—at a reference concentration of 20 μM—the weighted arithmetic mean of the normalized fluorescence intensity values after addition of the corresponding combined standard deviation amounts to 0.9 or lower, in particular to 0.8 or lower, 0.7 or lower, 0.6 or lower, 0.4 or lower, and 0.2 or lower, relative to the overall basis level of 1.0. The overall basis level was calculated as the weighted arithmetic mean of all normalized values from the DMSO control measurements in analogy to the calculations performed for the test-compounds. The corresponding combined standard deviation for the DMSO values amounts to less than 1·10^−2.
A general note: Alamar Blue is a resazurin reagent that responds to reducing activity.
With `CCc1ccc(Oc2ccc(C(=O)O)cc2)cc1` [Compound 002, 4-(4-ethylphenoxy)benzoic acid], the activity at 20 µM was 80 to 90%. As for `CCOC(=O)c1ccc(Oc2ccc(C(C)C)cc2)cc1` [Compound 054, ethyl 4-(4-isopropylphenoxy)benzoate], the figure is 80 to 90%. As for `O=C(O)c1ccc(Oc2ccc(C3CC4CCC3CC4)cc2)nc1` (stereo not shown) [Compound 087, 6-(4-((1s,4s)-bicyclo[2.2.2]octan-2-yl)phenoxy)nicotinic acid], the figure is 80 to 90%; as for `CCc1ccc(Oc2ccc(C(=O)NO)cc2)cc1` [Compound 165, 4-(4-ethylphenoxy)-N-hydroxybenzamide], 80 to 90%. Consider `CCCCc1ccc(Oc2ccc(C(=O)N(C)C)cc2)cc1` [Compound 218, 4-(4-butylphenoxy)-N,N-dimethylbenzamide], for which the activity at 20 µM was in the range of 40 to 60%. As for `CCC(C)(C)c1ccc(Oc2ccc(C(=O)N(C)C)cc2)cc1` [Compound 223, N,N-dimethyl-4-(4-(tert-pentyl)phenoxy)benzamide], the figure is 70 to 80%; as for `CCCCCc1ccc(Oc2ccc(C(N)=O)cn2)cc1` [Compound 245, 6-(4-pentylphenoxy)nicotinamide], 80 to 90%. For the molecule `CCC(C)(C)c1ccc(Oc2ccc(C(N)=O)cn2)cc1` [Compound 248, 6-(4-(tert-pentyl)phenoxy)nicotinamide], the activity at 20 µM was in the range of 80 to 90%.

For `CCC(C)(C)c1ccc(Oc2ccc(C(=O)NC)cn2)cc1` [Compound 298, N-methyl-6-(4-(tert-pentyl)phenoxy)nicotinamide], the activity at 20 µM lay within 80 to 90%. In the case of `CCCCCc1ccc(Oc2ccc(C(=O)N(C)C)cn2)cc1` [Compound 320, N,N-dimethyl-6-(4-pentylphenoxy)nicotinamide], the activity at 20 µM is 40 to 60%. As for `CCOC(=O)c1ccc(Oc2ccc(C34CC5CC(CC(C5)C3)C4)cc2)c(F)c1` [Compound 414, ethyl 4-(4-((3r,5r,7r)-adamantan-1-yl)phenoxy)-3-fluorobenzoate], the figure is 60 to 70%; as for `O=C(O)c1cnc(Oc2ccc(C(F)(F)F)cc2)c(F)c1` [Compound 427, 5-fluoro-6-(4-(trifluoromethyl)phenoxy)nicotinic acid], 80 to 90%; as for `CCOC(=O)c1cnc(Oc2ccc(C(C)(C)CC)cc2)c(F)c1` [Compound 477, ethyl 5-fluoro-6-(4-(tert-pentyl)phenoxy)nicotinate], 80 to 90%. Consider `CCOC(=O)c1cnc(Oc2ccc(C3CCCCC3)cc2)c(F)c1` [Compound 488, ethyl 6-(4-cyclohexylphenoxy)-5-fluoronicotinate], for which the activity at 20 µM is 70 to 80%. `CCOC(=O)c1cnc(Oc2ccc(C34CC5CC(CC(C5)C3)C4)cc2)c(F)c1` [Compound 492, ethyl 6-(4-((3r,5r,7r)-adamantan-1-yl)phenoxy)-5-fluoronicotinate]: the activity at 20 µM was 60 to 70%. As to `CCC(C)(C)c1ccc(Oc2ccc(C(=O)N(C)C)cc2F)cc1` [Compound 581, 3-fluoro-N,N-dimethyl-4-(4-(tert-pentyl)phenoxy)benzamide], the activity at 20 µM fell in the range of 70 to 80%. As for `CN(C)C(=O)c1ccc(Oc2ccc(C3CCCCC3)cc2)c(F)c1` [Compound 592, 4-(4-cyclohexylphenoxy)-3-fluoro-N,N-dimethylbenzamide], the activity at 20 µM is 80 to 90%.

On to `CNC(=O)c1cnc(Oc2ccc(C34CC5CC(CC(C5)C3)C4)cc2)c(F)c1` [Compound 674, 6-(4-((3r,5r,7r)-adamantan-1-yl)phenoxy)-5-fluoro-N-methylnicotinamide], for which the activity at 20 µM was in the range of 70 to 80%. Turning to `CCC(C)(C)c1ccc(Oc2ncc(C(=O)N(C)C)cc2F)cc1` [Compound 685, 5-fluoro-N,N-dimethyl-6-(4-(tert-pentyl)phenoxy)nicotinamide], the activity at 20 µM lay in the range of 70 to 80%. For the molecule `CN(C)C(=O)c1cnc(Oc2ccc(C34CC5CC(CC(C5)C3)C4)cc2)c(F)c1` [Compound 700, 6-(4-((3r,5r,7r)-adamantan-1-yl)phenoxy)-5-fluoro-N,N-dimethylnicotinamide], the activity at 20 µM fell in the range of 60 to 70%. Take `CCOC(=O)c1ccc(Oc2ccc(C3(C(F)(F)F)CC3)cc2)c(F)c1` [Compound 723, ethyl 3-fluoro-4-(4-(1-(trifluoromethyl)cyclopropyl)phenoxy)benzoate]: the activity at 20 µM lay within 80 to 90%.

In the case of `O=C(O)c1ccc(Oc2ccc(C3(C(F)(F)F)CC3)cc2Cl)nc1` [Compound 738, 6-(2-chloro-4-(1-(trifluoromethyl)cyclopropyl)phenoxy)nicotinic acid], the activity at 20 µM was in the range of 80 to 90%. As for `COC(=O)c1ccc(Oc2ccc(C3(C(F)(F)F)CC3)cc2)nc1` [Compound 739, methyl 6-(4-(1-(trifluoromethyl)cyclopropyl)phenoxy)nicotinate], the figure is 80 to 90%; as for `COC(=O)c1ccc(Oc2ccc(C3(C(F)(F)C(F)(F)F)CC3)cc2)nc1` [Compound 740, methyl 6-(4-(1-(perfluoroethyl)cyclopropyl)phenoxy)nicotinate], 80 to 90%; as for `CCOC(=O)c1ccc(Oc2ccc(C3(C(F)(F)F)CC3)cc2Cl)nc1` [Compound 756, ethyl 6-(2-chloro-4-(1-(trifluoromethyl)cyclopropyl)phenoxy)nicotinate], 70 to 80%. On to `CN(C)C(=O)c1ccc(Oc2ccc(C3(C(F)(F)C(F)(F)F)CC3)cc2)cc1` [Compound 785, N,N-dimethyl-4-(4-(1-(perfluoroethyl)cyclopropyl)phenoxy)benzamide], for which the activity at 20 µM was in the range of 70 to 80%. Turning to `CN(C)C(=O)c1ccc(Oc2ccc(C3(C(F)(F)F)CC3)cc2)c(F)c1` [Compound 786, 3-fluoro-N,N-dimethyl-4-(4-(1-(trifluoromethyl)cyclopropyl)phenoxy)benzamide], the activity at 20 µM was in the range of 70 to 80%. As for `CN(C)C(=O)c1ccc(Oc2ccc(C3(C(F)(F)F)CC3)cc2Cl)cc1` [Compound 792, 4-(2-chloro-4-(1-(trifluoromethyl)cyclopropyl)phenoxy)-N,N-dimethylbenzamide], the figure is 80 to 90%. For `NC(=O)c1ccc(Oc2ccc(C3(C(F)(F)F)CC3)cc2)nc1` [Compound 793, 6-(4-(1-(trifluoromethyl)cyclopropyl)phenoxy)nicotinamide], the activity at 20 µM was 80 to 90%.

Regarding `CNC(=O)c1ccc(Oc2ccc(C3(C(F)(F)F)CC3)cc2)nc1` [Compound 811], the activity at 20 µM was 80 to 90%.

For `CN(C)C(=O)c1ccc(Oc2ccc(C3(C(F)(F)C(F)(F)F)CC3)cc2)nc1` [Compound 821, N,N-dimethyl-6-(4-(1-(perfluoroethyl)cyclopropyl)phenoxy)nicotinamide], the activity at 20 µM lay within 60 to 70%.
